Three compounds from patent US12570604B2, “Polymorphic forms of a tetracycline compound and uses thereof” (Tetraphase Pharmaceuticals, Inc., priority 2018, dated 2026) can be followed below.

Data set [1] in a line: Dynamic vapor sorption (DVS) of crystalline Forms A and B. In kind it is physicochemical. The conditions noted are these: 25° C., adsorption range 0% to 95% RH. How it is done: (§1) The crystalline forms provided can be additionally characterized by dynamic vapor sorption (DVS), wherein a sample is subjected to varying conditions of humidity and temperature, and the response of the sample is measured gravimetrically. The result of a DVS analysis particularly can be a dual curve providing sample weight percent as a function of relative humidity (RH) over time, a dual curve providing sample water content as a function of RH over time, a curve providing weight percent in relation to RH, or a curve providing water content in relation to RH. Equipment useful for measuring such data is known in the art, and any such equipment can be used to measure the compounds according to the present invention. In certain embodiments, DVS analysis can be carried out by scanning at a series of specific RH values. Thus, specific polymorphs according to the invention may be identified and described in relation to the representative graph and/or the approximate peaks obtained in DVS analysis, particularly scanning from 0% to 95% RH with a step interval of 5% or 10% RH.
DVS pattern for the crystalline Forms A and B was generated at 25° C. using a DVS Moisture Balance Flow System (Model Advantage) with the following conditions: sample size approximately 10 to 20 mg, drying at 25° C. for 60 minutes, adsorption range 0% to 95% RH, desorption range 95% to 0% RH, and step interval 5% RH. […]

The nature of data set [2]: Dynamic vapor sorption (DVS) of crystalline Forms C and D. In kind it is physicochemical. The conditions noted are these: for DVS rapid weight gain: in the range of 25-35% RH; for DVS low weight gain: in the range of 35-75% RH. How it is done: as §1
DVS data for the crystalline Forms C and D were collected on a Surface Measurement System DVS Intrinsic instrument. Samples were not dried prior to analysis. Sorption and desorption data were collected over a range from 5% to 95% RH at 10% RH increments under a nitrogen purge. The equilibrium criterion used for analysis was less than 0.0100% weight change in 5 minutes with a maximum equilibration time of 3 hours. Data were not corrected for the initial moisture content of the samples.

For `CN(C)[C@@H]1C(O)=C(C(N)=O)C(=O)[C@@]2(O)C(O)=C3C(=O)c4c(O)c(NC(=O)[C@@H]5CCCN5C)cc(F)c4C[C@H]3C[C@@H]12` [Form A, (S)—N-((5aR,6aS,7S,10aS)-9-carbamoyl-7-(dimethylamino)-4-fluoro-1,8,10a,11-tetrahydroxy-10,12-dioxo-5,5a,6,6a,7,10,10a,12-octahydrotetracen-2-yl)-1-methylpyrrolidine-2-carboxamide], the DVS weight gain result is given as “about 19%” in data set [1] (at 75% RH) and “about 40%” in data set [1] (at 95% RH).

Consider `CN(C)[C@@H]1C(O)=C(C(N)=O)C(=O)[C@@]2(O)C(O)=C3C(=O)c4c(O)c(NC(=O)[C@@H]5CCCN5C)cc(F)c4C[C@H]3C[C@@H]12` [Form C, (S)—N-((5aR,6aS,7S,10aS)-9-carbamoyl-7-(dimethylamino)-4-fluoro-1,8,10a,11-tetrahydroxy-10,12-dioxo-5,5a,6,6a,7,10,10a,12-octahydrotetracen-2-yl)-1-methylpyrrolidine-2-carboxamide], for which the DVS weight gain result in data set [2] (in the range of 5-25% RH) was “about 2.7%”. Also, in data set [2], the “DVS rapid weight gain” value is “about 10%” and the “DVS low weight gain” value was “about 3.7%”. In data set [2] (in the range of 35-45% RH), the DVS weight gain result is listed as “about 6.1%”.

Turning to `CN(C)[C@@H]1C(O)=C(C(N)=O)C(=O)[C@@]2(O)C(O)=C3C(=O)c4c(O)c(NC(=O)[C@@H]5CCCN5C)cc(F)c4C[C@H]3C[C@@H]12` [Form D, (S)—N-((5aR,6aS,7S,10aS)-9-carbamoyl-7-(dimethylamino)-4-fluoro-1,8,10a,11-tetrahydroxy-10,12-dioxo-5,5a,6,6a,7,10,10a,12-octahydrotetracen-2-yl)-1-methylpyrrolidine-2-carboxamide], the “DVS total weight gain” value in data set [2] (between 5 and 95% RH) is listed as “about 39.2%”. Besides, in data set [2] (in the range of 5-25% RH), the DVS weight gain entry is reported as “about 2.7%”. Also, in data set [2], the “DVS rapid weight gain” value is reported as “about 10%” and the “DVS low weight gain” value was “about 3.7%”.
